# Laboratory results: patent US10746739B2, “Identification of novel diagnostics and therapeutics by modulating RhoH” (Leukemia Therapeutics, LLC, priority 2015, dated 2020)
# Tested on: pre-existing HCL tumors (JOK-Luc)
# Assay: Intraperitoneal JOK-Luc HCL xenograft treated with antibody, luminescence imaging
# Type: in vivo
# Conditions: JOK-Luc injected into peritoneum of Hsd:Athymic Nude-Foxn1nu mice; antibody intraperitoneally at day 4 and day 6; imaged at day 7; compared with control IgG antibody
# Description: JOK-1 cells were stably transfected with the plasmid pGL4.5[Luc2/CMV/Neo] that contains the firefly luciferase gene under control of the constitutive gene promoter of cytomegalovirus. This luciferase cell line was then injected into the peritoneum of mice of the strain Hsd:Athymic Nude-Foxn1^nu. After 3 days, mice were subjected to whole body imaging following intravenous injection of D-Luciferin. Those mice where tumor was detected were intraperitoneally injected at day 4 and day 6 with the anti-CD38 antibody SAR650984 or an IgG control antibody. At day 7, mice were again imaged. Depicted are superimposed luminescence and X-ray images of three mice injected with SAR650984 (CD38) and three injected with the control antibody (Ctrl).
# Experiments performed with JOK-CD38-KO indicate that targeting CD38 expression in HCL may have therapeutic efficacy. This was tested using the parent of JOK-CD38-KO where CD38 expression remained intact. The parental line was engineered such that it constitutively produced luciferase and, therefore, could be visualized by luminescence in the presence of luciferin. […]
# The role of CD38 in HCL was assessed using 5×10^6 of the cell line pools JOK-CD38-WT or JOK-CD38-KO injected subcutaneously into male or female mice that were 6-8 weeks old and of the strain NOD.Cg-Prkdc^scid IL2rγ^tm1Wj1/SzJ (Jackson Laboratory, Bar Harbor, Me., USA). […]
substance,measurement,value
SAR650984: humanized anti-CD38 antibody SAR650984 (Sanofi Oncology),effect on pre-existing HCL tumors by luminescence imaging,tended to be reduced
